From ChEMBL document CHEMBL1201862, “PubChem BioAssay data set” (2004) come the findings set out here.

Assay in all cases: DTP human tumour cell line panel, 48 h
The subject of experiment [1] is A498.
Experiment [2] has as its system EKVX.
The test system of experiment [3] is HCT-116.
Experiment [4] concerns HCT-15.
Experiment [5] deals with Hs-578T.
The subject of experiment [6] is K562.
Experiment [7] has as its system KM12.
Experiment [8] concerns LOX IMVI.
The test system of experiment [9] is M14.
Experiment [10] has as its system NCI-H226.
Experiment [11] relates to NCI-H23.
In experiment [12] the test system is NCI-H460.
Experiment [13] has as its system NCI/ADR-RES.
Experiment [14] has as its system RPMI-8226.
Experiment [15] has as its system RXF 393.
Experiment [16] has as its system SK-MEL-5.
For experiment [17], the system named is SW-620.
In experiment [18] the test system is UACC-257.

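Protocol summary: plate cells (96-well), add compound at 5 concentrations, incubate 48 h, interpolate endpoints linearly. Abbreviation: GI50, concentration required for 50% inhibition of growth.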 Calls of active or inactive are those of the source. No stated cut-off is given here; in the data, active = GI50 up to about 1.1 µM and inactive = higher. Where only a bound is given, the exact number is not on record here.

As for `N#CC1C=Cc2ccccc2N1C(=O)Oc1ccccc1` (stereo not given), the GI50 – broadly, the concentration that inhibits growth by half – in experiment [1] was 33.1 µM (inactive); in experiment [2], 42.4 µM (inactive); in experiment [3], 38.7 µM (inactive); in experiment [4] it was 42.1 µM; in [5] it was 60 µM (inactive); in [6], 32.3 µM (inactive). Further, the GI50 was 37.2 µM (inactive) in experiment [7]; 39.9 µM (inactive) in [8]; 46.7 µM (inactive) in experiment [9]; 42.5 µM (inactive) in experiment [10]; 58.9 µM (inactive) in experiment [11]; 41.4 µM (inactive) in [12]. The GI50 in experiment [13] is 55.5 µM (inactive); in experiment [14] it was 21.3 µM (inactive); in experiment [15], 66.4 µM (inactive); in experiment [16] it was 46.5 µM (inactive); in experiment [17], 36.2 µM (inactive); in [18], 76.9 µM (inactive).

Take `CC(CO)CCNc1ncnc2c1ncn2CCC(=O)O` (stereo not given): the GI50 in experiment [1], in experiment [2], in [3], in experiment [5], in experiment [6] and in experiment [7] was > 100 µM (inactive) throughout. In addition, the GI50 in experiment [8], in [9], in experiment [10], in experiment [11], in [12] and in experiment [13] was > 100 µM (inactive) each time. Moreover, the GI50 in [14], in [15], in experiment [16], in [17] and in experiment [18] was > 100 µM (inactive) in each case.

Consider `CCCCCCCCCCCCCCCCNc1ccc2c(c1)OCCOCCOCCOCCO2`, for which the GI50 in experiment [2] was 4.03 µM (inactive); in [3], 3.04 µM (inactive); in [4] it was 2.88 µM; in experiment [5] it was 2.82 µM (inactive); in experiment [6], 4.2 µM (inactive); in experiment [7], 2.06 µM (inactive). Further, the GI50 in [8] was 2.24 µM (inactive); in experiment [9], 3.79 µM (inactive); in experiment [10], 1.77 µM (inactive); in [11], 3.62 µM (inactive); in experiment [12] it was 3.1 µM (inactive); in experiment [13], 2.37 µM (inactive). Besides, the GI50 in experiment [14] is 1.67 µM (inactive); in [15], 2.3 µM (inactive); in [16], 2.25 µM (inactive); in [17], 3.37 µM (inactive); in experiment [18], 2.56 µM (inactive).

As for `Nc1ccc2nc3ccc(N)cc3[n+](-c3ccccc3)c2c1`, the GI50 was > 100 µM (inactive) in experiment [1]; > 100 µM (inactive) in experiment [2]; 26.4 µM (inactive) in [3]; more than 100 µM in experiment [4]; 40.6 µM (inactive) in experiment [5]; 69.3 µM (inactive) in experiment [6]. Also, the GI50 in experiment [7] is 36 µM (inactive); in experiment [8] it was 15.7 µM (inactive); in experiment [9] it was 30.2 µM (inactive); in [11] it was 22.8 µM (inactive); in experiment [12] it was 32.8 µM (inactive); in experiment [13], 14.9 µM (inactive). Moreover, the GI50 in [14] is > 100 µM (inactive); in [15], > 100 µM (inactive); in experiment [16], 25.6 µM (inactive); in experiment [17] it was 37.3 µM (inactive); in experiment [18], 9.27 µM (inactive).

For the compound `CCCCCC(/C=N/Nc1ccccc1)C(O)(C(F)(F)F)C(F)(F)F` (stereo not given), the GI50 in [1] was > 100 µM (inactive); in experiment [2], > 100 µM (inactive); in experiment [3], > 100 µM (inactive); in experiment [4] it was more than 100 µM; in experiment [5] it was > 100 µM (inactive); in experiment [6], > 100 µM (inactive). The GI50 in experiment [8], in experiment [9], in [10], in [11], in experiment [12] and in experiment [13] was > 100 µM (inactive) each time. For the same compound, the GI50 in [14], in [15], in experiment [16], in experiment [17] and in experiment [18] was > 100 µM (inactive) each time.

Turning to `O=C1CC(c2ccccc2Cl)Oc2ccccc21` (stereo not given), the GI50 in experiment [1] was > 100 µM (inactive); in experiment [2], 14 µM (inactive); in experiment [3] it was 45 µM (inactive); in experiment [4], 24.7 µM; in experiment [5] it was 26.3 µM (inactive); in experiment [6] it was 17.3 µM (inactive). Moreover, the GI50 is 27 µM (inactive) in experiment [7]; 40.4 µM (inactive) in experiment [8]; 25.9 µM (inactive) in experiment [9]; 3.84 µM (inactive) in experiment [10]; 28.8 µM (inactive) in experiment [12]; 13.1 µM (inactive) in experiment [13]. Besides, the GI50 in [14] is 17.5 µM (inactive); in experiment [15], 17.2 µM (inactive); in experiment [16], 32.8 µM (inactive); in [17] it was 25.5 µM (inactive); in experiment [18] it was > 100 µM (inactive).

`CN1CCc2c(sc3nc(Nc4ccccc4)n(N)c(=O)c23)C1`: the GI50 in [1] is > 100 µM (inactive); in experiment [2], > 100 µM (inactive); in [3], 72.3 µM (inactive); in experiment [4], more than 100 µM; in experiment [5], > 100 µM (inactive); in [6], 37.1 µM (inactive). Besides, the GI50 in experiment [7] is > 100 µM (inactive); in experiment [9], 24.1 µM (inactive); in experiment [10], > 100 µM (inactive); in experiment [11], > 100 µM (inactive); in experiment [12], > 100 µM (inactive); in [13] it was > 100 µM (inactive). The GI50 in [14] was 83 µM (inactive); in [15], 63.4 µM (inactive); in experiment [16], 77.3 µM (inactive); in experiment [18] it was 60.4 µM (inactive).

On to `O=C(Nn1c(-c2ccccc2)nc2ccccc2c1=O)c1ccc(O)cc1`, for which the GI50 in experiment [1] was > 100 µM (inactive); in [2] it was 61 µM (inactive); in [3], > 100 µM (inactive); in [4], more than 100 µM; in [5] it was > 100 µM (inactive); in [6], > 100 µM (inactive). The GI50 in experiment [7], in experiment [9], in [10], in [11], in experiment [12] and in experiment [13] was > 100 µM (inactive) each time. Moreover, the GI50 in [14], in experiment [15], in experiment [16], in experiment [17] and in experiment [18] was > 100 µM (inactive) in each case.

Consider `O=C(/C=C/c1ccccc1)CCC1C(=O)NC(=S)NC1=O`, for which the GI50 in experiment [1] was > 100 µM (inactive); in experiment [3] it was > 100 µM (inactive); in experiment [4], more than 100 µM; in [5], > 100 µM (inactive); in experiment [6], > 100 µM (inactive); in experiment [8] it was > 100 µM (inactive). For the same compound, the GI50 in [9], in experiment [10], in experiment [11], in [12], in experiment [13] and in experiment [15] was > 100 µM (inactive) in each case. Further, the GI50 in experiment [16], in experiment [17] and in experiment [18] was > 100 µM (inactive) in each case.

Turning to `COC(=O)c1ccccc1C1CN=NC12Cc1c(C)cc(C)cc1C2=O` (stereo not given), the GI50 in experiment [1] was > 100 µM (inactive); in experiment [2] it was > 100 µM (inactive); in [3], > 100 µM (inactive); in experiment [4], more than 100 µM; in [5] it was > 100 µM (inactive); in experiment [6] it was > 100 µM (inactive). Besides, the GI50 in experiment [7], in experiment [8], in experiment [9], in experiment [10], in [11] and in experiment [12] was > 100 µM (inactive) throughout. The GI50 in [13], in experiment [15], in experiment [16], in experiment [17] and in experiment [18] was > 100 µM (inactive) each time.

For the compound `COc1cc2c[n+](C)c3c(c2cc1OC)Cc1cc2c(cc1-3)OCO2`, the GI50 is > 100 µM (inactive) in experiment [1]; > 100 µM (inactive) in experiment [2]; > 100 µM (inactive) in experiment [3]; more than 100 µM in [4]; > 100 µM (inactive) in experiment [5]; > 100 µM (inactive) in experiment [6]. Further, the GI50 in experiment [7], in experiment [8], in experiment [9], in [10], in [11] and in experiment [13] was > 100 µM (inactive) in each case. Besides, the GI50 in experiment [14] is 65 µM (inactive); in [16], > 100 µM (inactive); in [17] it was > 100 µM (inactive); in experiment [18], > 100 µM (inactive).

Consider `COc1cccc(-c2nc(O)c3ccccc3n2)c1`, for which the GI50 in experiment [1] was 22.4 µM (inactive); in [2], 26.8 µM (inactive); in [3] it was 22.5 µM (inactive); in experiment [4] it was 18 µM; in experiment [5], 19.6 µM (inactive); in experiment [6], 38.5 µM (inactive). The GI50 in [7] is 25 µM (inactive); in [8], 52.6 µM (inactive); in [9], 50.2 µM (inactive); in [11], 26.7 µM (inactive); in experiment [12], 23.2 µM (inactive); in experiment [13], 18.1 µM (inactive). Also, the GI50 in [15] is 25.4 µM (inactive); in [16], 24.3 µM (inactive); in experiment [17] it was 32.9 µM (inactive); in [18] it was 21.7 µM (inactive).
